US20070117794A1, “Methods of treatment using oxytocin receptor agonists” (Wyeth, priority 2005, published 2007)
“Also recorded” adds a separate entry of the source.

Key:
[1] = system: Male Sprague-Dawley derived Rats; test: Prepulse inhibition of the acoustic startle reflex (PPI), d-Amphetamine disrupted; assay type: in vivo, rat; conditions: for reversal of d-amphetamine induced disruption of PPI: i.p., 30 mins prior to test, hydrochloride
Excerpt: (§1) Prepulse inhibition of the acoustic startle reflex (PPI) is an operational measure of sensorimotor gating that can be measured across many species. Deficits in PPI have been reported in patients with schizophrenia, leading to its use as a preclinical model of the disease. In rats, PPI is decreased in a manner homologous to that seen in schizophrenia following administration of certain psychotomimetic drugs (e.g. MK801; amphetamine). In our study we utilized MK801, a non-competitive NMDA antagonist and d-Amphetamine, a non-selective dopamine agonist.
(§2) Animals: Male Sprague-Dawley derived Rats (SD) weighing 200-250 g were group housed in standard bedding cages, allowed access to food and water ad libitum, and maintained on a 12-hour light dark cycle. All behavioral testing was performed during the light cycle. All studies were previously approved by the Institutional Animal Care and Use Committee, and performed in accordance to the Guide for the Care and Use of Laboratory Animals as adopted and promulgated by the National Institutes of Health.
(§3) Test Compounds: The oxytocin agonist cpd A was dissolved in a 1% Tween-80/1% DMSO/saline vehicle. MK801 (Sigma, St. Louis, Mo.) was dissolved in 2% Tween-80/saline. d-Amphetamine (Sigma, St. Louis, Mo.) was dissolved in saline.
(§4) Each testing chamber (SR-LAB system, San Diego Instruments) consisted of a Plexiglas cylinder (8.8 cm in diameter) mounted on a frame and held in position by four metal pins to a base unit. Movement of the rat within the cylinder was detected by a piezoelectric accelerometer attached below the frame. […] Presentation of acoustic pulse and prepulse stimuli were controlled by the SR-LAB software and interface system, which also digitized, rectified and recorded the responses from the accelerometer. Mean startle amplitude was determined by averaging 100, 1 ms readings taken from the beginning of the pulse stimulus onset. For calibration purposes, sound levels were measured with a Quest sound level meter, scale “A”, with the microphone placed inside the Plexiglas cylinder. […]

Male Swiss-Webster mice = test: Four-Plate Test (FPT), punished crossings; assay type: in vivo, mouse; conditions: for reversal of the anxiolytic-like effect of cpd A / blockade of the anxiolytic-like effect of cpd A (in words): co-administered with cpd A 10 mg/kg; for blockade of the anxiolytic-like effect of cpd A (in words): cpd B 10-30 mg/kg
Method: as §2, with “Swiss-Webster mice” for “Sprague-Dawley derived Rats (SD)”, “18-24” for “200-250”, “were” for “were group”, “groups of 15 in hanging wire” for “standard bedding”
Test Compounds: Oxytocin (American Peptide Company, Sunnyvale, Calif.) was dissolved in a saline vehicle. The oxytocin agonist 4,-(3,5-Dihydroxy-benzyl)-piperazine-1-carboxylic acid 2-methyl-4-(3-methyl-4,10-dihydro-3H-2,3,4,9-tetra-aza-benzo[f]azulene-9-carbonyl)-benzylamide (hereinafter “cpd A”) and oxytocin antagonist 10-[(2-Methyl-2′-trifluoromethyl-[1,1′-biphenyl]-4-yl)carbonyl]-10,11-dihydro-5H-pyrrolo[2,1-c][1,4]benzodiazepine-3-carboxylic acid-bis-(2-hydroxy-ethyl)-amide (hereinafter “cpd B”) (Patent W/O 02/083680) were prepared and dissolved in a 1% Tween-80/1% DMSO/saline vehicle.
ICV injections: Mice were lightly anesthetized with halothane. Oxytocin was administered into either the left or right ventricle by visual location. A 26 gauge Hamilton syringe with 3 mm needle was used for injections and the injection site was visualized by locating the middle of the invisible line that runs diagonally from the left eye to the right ear. Test compounds were injected in a 2 μl total volume.
Four-Plate Test (FPT:) The four-plate apparatus consists of a Plexiglas chamber (18×25×16 cm) floored with four identical rectangular metal plates (8×11 cm), which are separated from one another by a gap of 4 mm and connected to a computerized device that can deliver electric shocks (0.8 mA, 0.5 sec) (Aron et al. Evaluation of a rapid technique for detecting minor tranquilizers, Neuropharmacology 10: 459-69 (1971)). In this test, mice are placed into the chamber and following a brief (18 seconds) habituation period, the animal's innate motivation to explore the novel environment is suppressed by the delivery of a mild foot shock every time the animal crosses any of the boundaries (gaps) while moving from one plate to another (referred to as a ‘punished crossing’). Following any punished crossing, there is a 3-second time out where the mouse may cross the electric plates without receiving another shock. An experimenter blind to the dosing conditions administers shocks, and a computer records the total number of punished crossings an animal makes during a 1-minute testing period. […] Pharmacol Biochem Behav 65: 339-44 (2000)). In all experiments, the testing procedure consisted of either a single injection or two injections followed by a test session 30 minutes later.
Statistical Analysis: One-way analysis of variance (ANOVA) was performed to determine effects of test compound treatments, followed by Least Significant Difference Tests for a post hoc analysis. All figures are shown with average ±SEM.

[2] = system: Male Sprague-Dawley derived Rats; test: Prepulse inhibition of the acoustic startle reflex (PPI), MK801 disrupted; assay type: in vivo, rat
Excerpt: as §1, §2, §3, §4
Startle amplitude was defined as the mean value of pulse alone trials. To evaluate the effect of drug treatment on startle response, data from the pulse alone trials was analyzed using one-factor ANOVA with repeated measures (one-way randomized block design), followed by a least significant difference (LSD) post-hoc test (comparison was made to vehicle/disrupting agent control). […] Although data for gating at three different prepulse intensities was generated, an averaged gating score across all prepulse intensities was calculated and this was analyzed by one factor ANOVA with repeated measures (one-way randomized block design). […]

male rats = conditions: OT 1-4 ug/kg, s.c.; cited from earlier work
mouse = conditions: OT 3 mg/kg, i.p.; cited from earlier work
rat = conditions: subcutaneous oxytocin; deficit induced by dizocilpine and amphetamine; cited from earlier work
OTR = molecular target: T1, OTR (Homo sapiens, UniProt P30559); conditions: cited from earlier work
T1 sequence (P30559 1-389): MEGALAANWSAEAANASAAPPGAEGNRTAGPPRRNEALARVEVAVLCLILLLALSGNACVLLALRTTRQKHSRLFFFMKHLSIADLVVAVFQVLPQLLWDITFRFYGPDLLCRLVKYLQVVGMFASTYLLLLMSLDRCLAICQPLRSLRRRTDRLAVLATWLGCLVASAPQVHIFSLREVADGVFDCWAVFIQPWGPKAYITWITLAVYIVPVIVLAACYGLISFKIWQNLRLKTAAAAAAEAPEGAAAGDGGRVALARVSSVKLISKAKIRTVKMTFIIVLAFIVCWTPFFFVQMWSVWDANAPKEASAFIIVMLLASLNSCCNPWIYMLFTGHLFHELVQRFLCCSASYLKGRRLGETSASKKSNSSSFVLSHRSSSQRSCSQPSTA

rats = conditions: cited from earlier work

C[C@H](N)Cc1ccccc1 [d-Amphetamine]
disruption of PPI ([1]; d-Amphetamine 4 mg/kg s.c., 10 min prior to test, 5 dB, 10 dB & 15 dB prepulse): produced significant disruption across all three prepulse intensities

Cc1cc(C(=O)N2Cc3cnn(C)c3Nc3ccccc32)ccc1CNC(=O)N1CCN(Cc2cc(O)cc(O)c2)CC1 [cpd A, 4,-(3,5-Dihydroxy-benzyl)-piperazine-1-carboxylic acid 2-methyl-4-(3-methyl-4,10-dihydro-3H-2,3,4,9-tetra-aza-benzo[f]azulene-9-carbonyl)-benzylamide]
increase in punished crossings from vehicle (Male Swiss-Webster mice; cpd A 10 mg/kg, ip, 30 minutes prior to testing, p<0.05): 32%
punished crossings (effect in words) (Male Swiss-Webster mice; cpd A 10 mg/kg, ip, antagonist study (FIG. 3), p<0.05, 10 mg/kg): increases punished crossings; also recorded: increased punished crossings compared to vehicle
increase in punished crossings from vehicle (Male Swiss-Webster mice; cpd A 30 mg/kg, ip, 30 minutes prior to testing, p<0.05): 25%
punished crossings (effect in words) (Male Swiss-Webster mice; cpd A 3-100 mg/kg, ip, 30 minutes prior to testing): increases the number of punished crossings; also recorded: significant overall effect on punished crossings
reversal of MK801 induced deficits in PPI ([2]; Cpd A 30 mg/kg i.p. (highest dose of 3-30 mg/kg), 30 mins prior to test): reversed MK801 induced deficits in PPI at 10 dB & 15 dB levels; also recorded: reversed MK801 induced disruption at 10 dB and 15 dB

CC[C@H](C)[C@@H]1NC(=O)[C@H](Cc2ccc(O)cc2)NC(=O)[C@@H](N)CSSC[C@@H](C(=O)N2CCC[C@H]2C(=O)N[C@@H](CC(C)C)C(=O)NCC(N)=O)NC(=O)[C@H](CC(N)=O)NC(=O)[C@H](CCC(N)=O)NC1=O [Oxytocin]
peripheral locomotor activity in the Open-Field model (male rats): decrease in peripheral locomotor activity
activity in elevated-plus maze (mouse): anxiolytic-like activity
increase in punished crossings from vehicle (Male Swiss-Webster mice; oxytocin 3 μg, icv, 30 minutes prior to testing, p<0.05): 30%
increase in punished crossings from vehicle (Male Swiss-Webster mice; oxytocin 10 μg, icv, 30 minutes prior to testing, p<0.05): 51%
punished crossings (effect in words) (Male Swiss-Webster mice; oxytocin 1-10 μg icv (b94 prints 1-10 mg), 30 minutes prior to testing): dose-dependent increase in punished crossings
restoration of prepulse inhibition (rat): dose-dependently restore prepulse inhibition
selectivity for OT compared to AVP at the OTR (OTR): 10 fold
reversal of MK801 induced deficits in PPI ([2]; oxytocin 0.04-1 mg/kg s.c., data not shown): reversed the MK801 induced deficits in PPI in rats in a dose dependent manner
open arm entries and time spent in the open arms of the elevated plus-maze (rats; OT 10-100 ng, i.c.v.): increases in open arm entries and time spent in the open arms
activity in the elevated-plus maze (rats; pregnant or lactating rats, but not virgin rats): Anxiolytic activity

C[C@]12N[C@H](Cc3ccccc31)c1ccccc12 [MK801]
disruption of PPI ([2]; MK801 0.1 mg/kg s.c., 10 min prior to test, 5 dB, 10 dB & 15 dB prepulse, 0.1 mg/kg): produced significant disruption in PPI across three prepulse intensities; also recorded: produced significant disruption across all three prepulse intensities
startle alone ([2]; MK801 0.1 mg/kg s.c., 10 min prior to test, p >0.05): no effect on startle alone

Cc1cc(C(=O)N2Cc3ccc(C(=O)N(CCO)CCO)n3Cc3ccccc32)ccc1-c1ccccc1C(F)(F)F [cpd B, 10-[(2-Methyl-2′-trifluoromethyl-[1,1′-biphenyl]-4-yl)carbonyl]-10,11-dihydro-5H-pyrrolo[2,1-c][1,4]benzodiazepine-3-carboxylic acid-bis-(2-hydroxy-ethyl)-amide]
reversal of the anxiolytic-like effect of cpd A (Male Swiss-Webster mice; cpd B 10 mg/kg, ip): 63%
reversal of the anxiolytic-like effect of cpd A (Male Swiss-Webster mice; cpd B 30 mg/kg, ip, p<0.05): 100%
blockade of the anxiolytic-like effect of cpd A (in words) (Male Swiss-Webster mice; ip): blocked the anxiolytic-like effect of cpd A in a dose-dependent manner
blockade of the anxiolytic-like effect of cpd A (in words) (Male Swiss-Webster mice; ip, listed as Cpd B): dose-dependently blocks the anxiolytic-like effect of Cpd A
punished crossings (effect in words) (Male Swiss-Webster mice; cpd B administered alone): no effect on punished crossings

Cc1cc(C(=O)N2Cc3cnn(C)c3Nc3ccccc32)ccc1CNC(=O)N1CCN(Cc2cc(O)cc(O)c2)CC1.Cl [Cpd A (HCl salt), 4,-(3,5-Dihydroxy-benzyl)-piperazine-1-carboxylic acid 2-methyl-4-(3-methyl-4,10-dihydro-3H -2,3,4,9-tetra-aza-benzo[f]azulene-9-carbonyl)-benzylamide hydrochloride]
reversal of d-amphetamine induced disruption of PPI ([1]; Cpd A (HCl salt) 10 mg/kg, 10 mg/kg): reversed d-amphetamine induced disruption at 5 dB and 10 dB; also recorded: reversed d-amphetamine—induced deficit at 5 dB and 10 dB
reversal of d-amphetamine induced disruption of PPI ([1]; Cpd A (HCl salt) 30 mg/kg, 30 mg/kg): reversed the d-amphetamine induced disruption at 10 dB
